Like-named read-outs stand apart in the source and are kept apart here.

For data set [1], the system named is GPR17+ cells (newly differentiated oligodendrocytes). Nature of the data set: In vivo OPC differentiation, GPR17+ cells in brain. Particulars: for In vivo GPR17+ cells, GPR17 Fold Induction (Over Vehicle): adult female C57BL/6 mice, PO or IP, treatment period 1-3 days, entire brain, fold change over vehicle treated animals.
Data set [2] deals with Oligodendrocyte progenitor cells (OPCs). The data set is described as follows: In vitro OPC differentiation assay, GPR17 expression (immunocytochemistry). Particulars: 72 hours; for GPR17 Fold Induction (Over Vehicle; 5 μM): primary rat OPCs, 5 μM (10x; final 0.5 μM per method), percent GPR17+ cells as fold change over vehicle; for GPR17 Fold Induction (Over Vehicle; 3 μM): 3 μM (10× concentration, final 0.3 μM), fold change over vehicle.

The next data set concerns the target PDGFRα (Homo sapiens (Human), UniProt P16234). The data set is described as follows: PDGFRα kinase enzyme assay (Promega PDGFRα Kinase Enzyme System, ADP-Glo). The format is biochemical. Particulars: 150 uM ATP. The gist of the method:
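Purified PDGFRα protein (20 ng) reacted with test compound per the Promega kinase system protocol. ADP formed was measured by ADP-Glo luminescence against a standard curve, giving IC50.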

The mark [3] stands for this setting: 11-point dose response, 10,000 nM to 0.169 nM, BLQ = below limit of quantitation, read-out: IC50 Values on PDGFRα Kinase Inhibition, IC50.

Sequence of PDGFRα (P16234 24-1089): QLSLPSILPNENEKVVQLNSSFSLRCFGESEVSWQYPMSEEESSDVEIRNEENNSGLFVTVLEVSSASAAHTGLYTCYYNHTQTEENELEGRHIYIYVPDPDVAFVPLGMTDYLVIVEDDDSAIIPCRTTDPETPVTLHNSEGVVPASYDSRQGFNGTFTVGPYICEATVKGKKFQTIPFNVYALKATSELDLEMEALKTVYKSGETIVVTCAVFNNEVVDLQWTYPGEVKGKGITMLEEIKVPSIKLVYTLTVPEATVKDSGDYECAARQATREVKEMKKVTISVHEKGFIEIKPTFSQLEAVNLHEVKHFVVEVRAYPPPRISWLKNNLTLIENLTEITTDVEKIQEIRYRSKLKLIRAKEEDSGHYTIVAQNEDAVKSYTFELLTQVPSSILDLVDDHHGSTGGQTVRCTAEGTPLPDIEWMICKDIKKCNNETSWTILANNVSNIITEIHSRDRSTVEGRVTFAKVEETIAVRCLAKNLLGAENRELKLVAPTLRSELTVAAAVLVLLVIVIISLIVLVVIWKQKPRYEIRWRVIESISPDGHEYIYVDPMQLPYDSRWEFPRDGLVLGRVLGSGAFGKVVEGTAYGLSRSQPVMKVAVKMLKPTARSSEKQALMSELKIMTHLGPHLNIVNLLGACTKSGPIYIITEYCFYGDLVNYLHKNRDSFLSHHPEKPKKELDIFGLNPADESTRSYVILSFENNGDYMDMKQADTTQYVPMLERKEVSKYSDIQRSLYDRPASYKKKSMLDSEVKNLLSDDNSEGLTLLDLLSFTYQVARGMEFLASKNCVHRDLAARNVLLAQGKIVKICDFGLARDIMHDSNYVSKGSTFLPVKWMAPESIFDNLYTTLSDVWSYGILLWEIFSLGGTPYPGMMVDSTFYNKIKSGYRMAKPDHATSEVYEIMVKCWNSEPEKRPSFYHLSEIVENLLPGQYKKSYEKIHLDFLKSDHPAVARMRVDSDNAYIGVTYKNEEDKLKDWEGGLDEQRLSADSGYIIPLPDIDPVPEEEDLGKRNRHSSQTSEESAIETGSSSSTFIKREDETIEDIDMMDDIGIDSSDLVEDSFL

`Cc1ccccc1C(OCCN(C)C)c1ccccc1` (centres unmarked) [Orphenadrine]: in data set [1], the “In vivo GPR17+ cells, GPR17 Fold Induction (Over Vehicle)” value worked out at 1.07.

On to `CN(C[C@@H]1COCCO1)S(=O)(=O)Nc1ccc2ccc3ncc(-c4cnn(C)c4)cc3c(=O)c2c1` [MK-2461, reference compound], for which the “In vivo GPR17+ cells, GPR17 Fold Induction (Over Vehicle)” value in data set [1] came out at 1.47.

Turning to `CCN(CC)CCNC(=O)c1c(C)[nH]c(/C=C2\C(=O)Nc3ccc(-c4csc(-c5ccccc5)n4)cc32)c1C` [Amcasertib, amcasertib, reference compound], the “In vivo GPR17+ cells, GPR17 Fold Induction (Over Vehicle)” value in data set [1] was 1.49.

With `S=C(NCc1ccc2c(c1)OCO2)N1CCN(c2ncnc3c2oc2ccccc23)CC1` [Amuvatinib, amuvatinib, reference compound], the “In vivo GPR17+ cells, GPR17 Fold Induction (Over Vehicle)” value in data set [1] is recorded as 2.18.

Consider `Cn1cc(-c2cn3c(N4CCN(c5ncc(Cc6ccccc6)cn5)CC4)cnc3cn2)cn1` [Compound 21, 3-[4-(5-benzylpyrimidin-2-yl)piperazin-1-yl]-6-(1-methyl-1H-pyrazol-4-yl)imidazo[1,2-a]pyrazine], for which the fold induction at 150 mg/kg in data set [1] (Mus musculus, ip, 24 h, read-out: GPR17 Fold Induction (Over Vehicle)) came out at 1.48.

For `Cc1[nH]c(/C=C2\C(=O)Nc3ccccc32)c(C)c1CCC(=O)O` [Orantinib, orantinib, reference compound], the “In vivo GPR17+ cells, GPR17 Fold Induction (Over Vehicle)” value in data set [1] is 2.43.

As for `Cc1[nH]c(/C=C2\C(=O)Nc3ccc(F)cc32)c(C)c1C(=O)NC[C@H](O)CN1CCOCC1` [SU-14813, reference compound], the “In vivo GPR17+ cells, GPR17 Fold Induction (Over Vehicle)” value in data set [1] came to 2.63. Further, the “GPR17 Fold Induction (Over Vehicle; 5 μM)” value in data set [2] was determined as 4.12.

As for `CN(CCN(C)c1cnc2nc(C3CCOC3)ccn12)C(=O)OC(C)(C)C` (centres unmarked) [Compound 98], the “GPR17 Fold Induction (Over Vehicle; 3 μM)” value in data set [2] is reported as 0.98. In addition, on PDGFRα (setting [3]), the IC50 was above 10 µM.

Consider `COCCn1cc(-c2ccn3c(N4CCCN(C(=O)OC(C)(C)C)CC4)cnc3n2)cn1` [Compound 105, tert-butyl 4-(7-(1-(2-methoxyethyl)-1H-pyrazol-4-yl)imidazo[1,2-a]pyrimidin-3-yl)-1,4-diazepane-1-carboxylate], for which the “GPR17 Fold Induction (Over Vehicle; 3 μM)” value in data set [2] worked out at 0.46. Further, the IC50 on PDGFRα (setting [3]) was above 10 µM.

As to `Cn1cc(-c2ccc3c(N4CCN(Cc5csc(Cl)c5)CC4)cnn3c2)cn1` [Compound 200, 3-(4-((5-chlorothiophen-3-yl)methyl)piperazin-1-yl)-6-(1-methyl-1H-pyrazol-4-yl)pyrazolo[1,5-a]pyridine], the “GPR17 Fold Induction (Over Vehicle; 3 μM)” value in data set [2] is recorded as 2.20. In addition, the concentration for half-maximal inhibition (IC50) on PDGFRα (setting [3]) is 6.96 µM.

Take `Cn1cc(-c2ccc3c(N4CCN(C(=O)OCC5CCOCC5)CC4)cnn3c2)cn1` [Compound 14, Tetrahydro-2H-pyran-4-ylmethyl 4-[6-(1-methyl-1H-pyrazol-4-yl)pyrazolo[1,5-a]pyridin-3-yl]piperazine-1-carboxylate]: the “GPR17 Fold Induction (Over Vehicle; 3 μM)” value in data set [2] came to 1.11. For the same compound, at PDGFRα (setting [3]), the IC50 came to 4.31 µM.

Regarding `CC(C)(C)OC(=O)N1CCN(c2cnn3cc(-c4cncnc4)ccc23)CC1` [Compound 219, tert-butyl 4-(6-(pyrimidin-5-yl)pyrazolo[1,5-a]pyridin-3-yl)piperazine-1-carboxylate], in data set [2], the “GPR17 Fold Induction (Over Vehicle; 3 μM)” value came out at 1.42. Moreover, at PDGFRα (setting [3]), the IC50 is above 10 µM.

As for `COC(=O)[C@@]1(O)C[C@H]2O[C@]1(C)n1c3ccccc3c3c4c(c5c6ccccc6n2c5c31)C(=O)NC4` [Compound K252a, K252a, reference compound], the “GPR17 Fold Induction (Over Vehicle; 5 μM)” value in data set [2] was 2.53. In addition, the IC50 at PDGFRα (20 ng purified PDGFRα, Poly (Glu4Tyr1) substrate, two hours, 11-point dose response, read-out: IC50 Values on PDGFRα Kinase Inhibition) came out at 0.427 µM.

For the compound `Cn1cc(-c2ccc3c(N4CC=C(c5ncc(Cc6ccccc6)cn5)CC4)cnn3c2)cn1` [Compound 300, 3-(4-(5-benzylpyrimidin-2-yl)-3,6-dihydropyridin-1 (2H)-yl)-6-(1-methyl-1H-pyrazol-4-yl)pyrazolo[1,5-a]pyridine], the “GPR17 Fold Induction (Over Vehicle; 3 μM)” value in data set [2] amounted to 1.24. For the same compound, the half-inhibitory concentration (IC50) on PDGFRα (setting [3]) is 3.55 µM.

In the case of `CC(C)(C)OC(=O)N1CCN(c2cnn3cc(CCCN4CCCC4)ccc23)CC1` [Compound 205, tert-butyl-4-(6-(3-(pyrrolidin-1-yl)propyl)pyrazolo[1,5-a]pyridin-3-yl)piperazine-1-carboxylate], in data set [2], the “GPR17 Fold Induction (Over Vehicle; 3 μM)” value is reported as 1.92. The half-inhibitory concentration (IC50) at PDGFRα (setting [3]) was above 10 µM.

Regarding `COc1ccc(CN2CCN(c3cnn4cc(-c5cnn(C)c5)ccc34)CC2)cc1` [Compound 253, 3-[4-(4-methoxybenzyl)piperazin-1-yl]-6-(1-methyl-1H-pyrazol-4-yl)pyrazolo[1,5-a]pyridine], the “GPR17 Fold Induction (Over Vehicle; 3 μM)” value in data set [2] worked out at 0.97. The half-maximal inhibitory concentration (IC50) at PDGFRα (setting [3]) was above 10 µM.

Regarding `Cn1cc(-c2ccc3c(N4CCN(S(=O)(=O)NCc5ccc(Cl)cc5)CC4)cnn3c2)cn1` [Compound 292, N-(4-chlorobenzyl)-4-(6-(1-methyl-1H-pyrazol-4-yl)pyrazolo[1,5-a]pyridin-3-yl)piperazine-1-sulfonamide], the “GPR17 Fold Induction (Over Vehicle; 3 μM)” value in data set [2] is 9.78. The IC50 at PDGFRα (setting [3]) was determined as 0.05 µM.

Take `Cn1cc(-c2ccc3c(N4CCC(C(=O)NCc5ccccc5)CC4)cnn3c2)cn1` [Compound 146, N-benzyl-1-(6-(1-methyl-1H-pyrazol-4-yl)pyrazolo[1,5-a]pyridin-3-yl)piperidine-4-carboxamide]: the “GPR17 Fold Induction (Over Vehicle; 3 μM)” value in data set [2] is 4.45. For the same compound, the IC50 at PDGFRα (setting [3]) is 5.69 µM.

Consider `CC1CN(c2ncc(Cc3ccccc3)cn2)CCN1c1cnn2cc(-c3cnn(C)c3)ccc12` (centres unmarked) [Compound 142, 3-(4-(5-benzylpyrimidin-2-yl)-2-methylpiperazin-1-yl)-6-(1-methyl-1H-pyrazol-4-yl)pyrazolo[1,5-a]pyridine], for which the “GPR17 Fold Induction (Over Vehicle; 3 μM)” value in data set [2] is 5.85. Also, the IC50 on PDGFRα (setting [3]) worked out at 9.54 µM.

As for `CC(C)(C)OC(=O)N1CCN(c2cnn3cc(-c4cn(CCO)cn4)ccc23)CC1` [Compound 229, tert-butyl 4-(6-(1-(2-hydroxyethyl)-1H-imidazol-4-yl)pyrazolo[1,5-a]pyridin-3-yl)piperazine-1-carboxylate], the “GPR17 Fold Induction (Over Vehicle; 3 μM)” value in data set [2] is listed as 10.61. For the same compound, the IC50 at PDGFRα (setting [3]) worked out at 0.363 µM.

As for `Cn1cc(-c2ccc3c(N4CCN(c5nc(Cc6ccccc6)ns5)CC4)cnn3c2)cn1` [Compound 245, 3-benzyl-5-(4-(6-(1-methyl-1H-pyrazol-4-yl)pyrazolo[1,5-a]pyridin-3-yl)piperazin-1-yl)-1,2,4-thiadiazole], the “GPR17 Fold Induction (Over Vehicle; 3 μM)” value in data set [2] came out at 5.22. Moreover, the IC50 at PDGFRα (setting [3]) is above 10 µM.

With `Cc1cn(-c2ccn3c(N4CCCN(C(=O)OC(C)(C)C)CC4)cnc3n2)cn1` [Compound 111, tert-butyl 4-(7-(4-methyl-1H-imidazol-1-yl)imidazo[1,2-a]pyrimidin-3-yl)-1,4-diazepane-1-carboxylate], the “GPR17 Fold Induction (Over Vehicle; 3 μM)” value in data set [2] came to 0.60. On PDGFRα (setting [3]), the half-maximal inhibitory concentration (IC50) is above 10 µM.

On to `C[C@@H](OC(=O)N1CCN(c2cnc3cc(-c4cnn(C)c4)ncn23)CC1)c1ccccc1` [Compound 115, (R)-1-phenylethyl 4-(7-(1-methyl-1H-pyrazol-4-yl)imidazo[1,2-c]pyrimidin-3-yl)piperazine-1-carboxylate], for which the “GPR17 Fold Induction (Over Vehicle; 3 μM)” value in data set [2] is 2.46. The IC50 on PDGFRα (setting [3]) is above 10 µM.

With `CN(CCN(C)c1cnc2nc(-c3cnn(C)c3)ccn12)C(=O)OC(C)(C)C` [Compound 96], in data set [2], the “GPR17 Fold Induction (Over Vehicle; 3 μM)” value is 0.50. In addition, the IC50 at PDGFRα (setting [3]) was above 10 µM.

Consider `Cn1cc(-c2ccc3c(N4CC(Nc5ncc(Cc6ccccc6)cn5)C4)cnn3c2)cn1` [Compound 149, 5-benzyl-N-(1-(6-(1-methyl-1H-pyrazol-4-yl)pyrazolo[1,5-a]pyridin-3-yl)azetidin-3-yl)pyrimidin-2-amine], for which the “GPR17 Fold Induction (Over Vehicle; 3 μM)” value in data set [2] is given as 8.88. Further, on PDGFRα (setting [3]), the half-inhibitory concentration (IC50) was above 10 µM.

In the case of `CN(CCN(C)c1cnc2cc(-c3cccnc3)ncn12)C(=O)OC(C)(C)C` [Compound 99, tert-butyl methyl(2-(methyl(7-(pyridin-3-yl)imidazo[1,2-c]pyrimidin-3-yl)amino)ethyl)carbamate], in data set [2], the “GPR17 Fold Induction (Over Vehicle; 3 μM)” value worked out at 0.62. For the same compound, the IC50 on PDGFRα (setting [3]) was above 10 µM.

For the compound `CCCCCc1cnc(N2CCN(c3cnn4cc(-c5cnn(C)c5)ccc34)CC2)nc1` [Compound 190], in data set [2], the “GPR17 Fold Induction (Over Vehicle; 3 μM)” value was 6.05. For the same compound, on PDGFRα (setting [3]), the concentration for half-maximal inhibition (IC50) amounted to 0.543 µM.

As for `Cc1nn(C)c(C)c1-c1ccc2c(N3CCN(C(=O)OC(C)(C)C)CC3)cnn2c1` [Compound 222, tert-butyl 4-(6-(1,3,5-trimethyl-1H-pyrazol-4-yl)pyrazolo[1,5-a]pyridin-3-yl)piperazine-1-carboxylate], in data set [2], the “GPR17 Fold Induction (Over Vehicle; 3 μM)” value is reported as 3.74. At PDGFRα (setting [3]), the IC50 turned out to be 0.912 µM.

Regarding `CC(C)(C)OC(=O)N1CCN(c2cnn3cc(-c4ccc(F)cc4)ccc23)CC1` [Compound 207, tert-butyl 4-(6-(4-fluorophenyl)pyrazolo[1,5-a]pyridin-3-yl)piperazine-1-carboxylate], the “GPR17 Fold Induction (Over Vehicle; 3 μM)” value in data set [2] was 2.24. The IC50 on PDGFRα (setting [3]) stood at 4.83 µM.

Turning to `Cn1cc(-c2cnn3c(N4CCN(S(=O)(=O)NCc5ccc(C(F)(F)F)cc5)CC4)cnc3c2)cn1` [Compound 296, 4-(7-(1-methyl-1H-pyrazol-4-yl)imidazo[1,2-b]pyridazin-3-yl)-N-(4-(trifluoromethyl)benzyl)piperazine-1-sulfonamide], the “GPR17 Fold Induction (Over Vehicle; 3 μM)” value in data set [2] was determined as 10.65. For the same compound, the IC50 at PDGFRα (setting [3]) came to 0.397 µM.

Take `CC(C)(C)OC(=O)N1CCN(c2cnn3cc(CCCO)ccc23)CC1` [Compound 204, tert-butyl 4-(6-(3-hydroxypropyl)pyrazolo[1,5-a]pyridin-3-yl)piperazine-1-carboxylate]: the “GPR17 Fold Induction (Over Vehicle; 3 μM)” value in data set [2] came out at 1.20. The 50% inhibitory concentration (IC50) on PDGFRα (setting [3]) is above 10 µM.

(Values after patent US20250129067A1 (Progentos Therapeutics, Inc., priority 2021, published 2025).)
